Columns and labels:
DCD porcine kidneys [1] = experiment: Ex vivo perfusion of DCD porcine kidneys with autologous blood (SMP/NMP), then reperfusion with stressed blood at 37° C.; set-up: species or system Pigs
Method: Pigs were tranquilized prior to transport to the Canadian Surgical Technologies & Advanced Robotics facility (CSTAR, University Hospital, London, Canada). Upon arrival at CSTAR, the animals were prepared for surgery as per SOP. A midline incision was used to expose the kidneys. The right and left kidneys with their ureters were dissected free from the retro peritoneum while leaving the blood supply to the ureter intact and then the ureter was divided. The renal vascular pedicles were left as long as possible by freeing the renal artery and vein up to the aorta and vena cava. The pedicles were clamped for 30 minutes to induce warm ischemia in the donor organs following intravenous infusion of 3000 units of heparin. The injury inflicted is likely greater than that of conventional DCD kidneys after withdrawal of life support as the blood supply is cutoff completely by clamping, which is more harmful than the gradual ischemic injury that occurs during cardiac death. Subsequently, nephrectomies of the left and right kidney were performed and the donor animal was euthanized. […]
The kidneys were randomly assigned to one of four preservation treatments. […] Blood, urine and tissue samples were collected and analyzed as described in the next subsection.
Blood and urine samples were collected hourly during the 4 h preservation perfusion with non-stressed blood and during the 4 h reperfusion with stressed blood to evaluate graft function over time. Hourly urine output was recorded, and total urine samples were also collected from both perfusion periods. Pictures of the kidney, urine bags and blood flow and pressure readings were taken hourly. […] During the perfusion periods, we closely monitored pump parameters (flow and pressure) to ensure optimal graft function. […] The total TUNEL+ area (%) was quantified for 10 random fields of view for 2 kidney samples per treatment group using ImageJ software v 1.50 (National Institutes of Health, USA). The total tubular area and TUNEL+ tubular area, used to calculate the TUNEL+ area (%), were determined by adjusting the brightness and saturation thresholds. […]

[2] = tested on: oxidatively stressed endothelial cells; conditions: including protection against oxidative mitochondrial DNA damage; cited from earlier work
kidney = conditions: AP39 supplementation of UW solution, 21° C.; cited from earlier work
donor kidneys = experiment: Static cold storage (4° C.) of donor kidneys in UW solution supplemented with AP39; conditions: AP39 added to UW / cold preservation solution, applicant's earlier work
DCD porcine kidneys [3] = experiment: Ex vivo subnormothermic perfusion of DCD porcine kidneys with Hemopure® at 21° C. followed by blood-free reperfusion at 37° C.; set-up: species or system Pigs; conditions: for tissue oxygenation during preservation: 21° C., vs SCS (FIG. 4A); for urine output during preservation: 4 h perfusion at 21° C., vs Hemopure® alone (FIG. 3A)
Source text: Pigs weighing 55-65 kg were used for this study. The animals were maintained in accordance with the Committee on the Care and Use of Laboratory Animals appointed by the National Research Council. The animals were housed at the animal facility in the West Valley Building, which is managed by the Animal Care and Veterinary Services Department at The University of Western Ontario. The experimental protocol and housing conditions followed the guidelines of the university's Animal Care Committee and the Canadian Council on Animal Care.
Pigs were tranquilized prior to transport to the Canadian Surgical Technologies & Advanced Robotics facility (CSTAR, University Hospital, London, Canada). Upon arrival at CSTAR, the animals were prepared for surgery as per SOP. A midline incision was used to expose the kidneys. The right and left kidneys with their ureters were dissected free from the retro peritoneum while leaving the blood supply to the ureter intact and then the ureter was divided. The renal vascular pedicles were left as long as possible by freeing the renal artery and vein up to the aorta and vena cava. The pedicles were clamped for 30 minutes to induce warm ischemia in the donor organs following intravenous infusion of 10000 units of heparin. The injury inflicted is likely greater than that of conventional DCD kidneys after withdrawal of life support as the blood supply is cutoff completely by clamping, which is more harmful than the gradual ischemic injury that occurs during cardiac death. Subsequently, nephrectomies of the left and right kidney were performed and the donor animal was euthanized. All the surgeries were performed by transplant fellows at University Hospital, London, Ontario, Canada.
The kidneys were randomly assigned to one of five preservation treatments. The first group of kidneys were flushed with and stored in HTK solution on ice for 4 h (SCS), which reflects the current clinical standard of care for organ preservation. The second group of kidneys were flushed with HTK solution and treated to 4 h of subnormothermic perfusion at 21° C. with Hemopure®. The third group of kidneys were flushed with HTK solution supplemented with 200 nM AP39 and treated to 4 h of subnormothermic perfusion at 21° C. with Hemopure® supplemented with 200 nM AP39. The fourth group of kidneys were flushed with HTK solution supplemented with 1 μM AP39 and treated to 4 h of subnormothermic perfusion at 21° C. with Hemopure® supplemented with 1 μM AP39. The fifth group of kidneys were flushed with HTK solution supplemented with 150 μM STS and treated to 4 h of subnormothermic perfusion at 21° C. with Hemopure® supplemented with 150 μM STS. After the 4 h preservation period, all kidneys were perfused with Hemopure® for 4 h at 37° C. with nutrients to simulate reperfusion after renal transplantation. The kidneys were perfused using an ex vivo perfusion apparatus (FIG. 4). The perfusion pressure was maintained at 50 mmHg. Hemopure® samples were analyzed hourly. The perfusate was oxygenated using an external mixed air supply (35% O2, 2 L/min). After reperfusion with stressed blood, kidneys were bivalved sagittally. One half was stored at −80° C. for mechanistic analyses and the other half was stored in formalin for histopathological analyses.
Hemopure® and urine samples were collected hourly during the 4 h preservation perfusion and during the 4 h reperfusion to evaluate graft function over time. Electrolyte levels, lactate levels and gas levels in the perfusate were measured hourly using the iSTAT point-of-care testing system. Hourly urine output was recorded, and total urine samples were also collected from both perfusion periods. Pictures of the kidney, urine bags and flow and pressure readings were taken hourly. Tissue oxygenation was also measured hourly. During both perfusion periods, we closely monitored pump parameters (flow and pressure) to ensure optimal graft function. […]

[4] = 500 ppm; cited from earlier work

SMILES: O=C(CCCCCCCCC[P+](c1ccccc1)(c1ccccc1)c1ccccc1)Oc1ccc(-c2cc(=S)ss2)cc1.[Br-] [AP39]
- urine output during 4 h of preservation (DCD porcine kidneys [1]; 200 nM AP39 in non-stressed blood at 21° C. (SMP-AP39-21C), vs SMP-21C and NMP-37C (FIG. 9A)): significantly higher
- graft function (DCD porcine kidneys [1]; AP39-supplemented blood at 21° C., vs cold storage in UW and perfusion with only blood at 21° C. and 37° C.): improves graft function
- urine output during 4 h of reperfusion with stressed blood (DCD porcine kidneys [1]; preserved with SMP-AP39-21C, vs SCS-4C, SMP-21C, NMP-37C (FIG. 9B)): significantly higher
- protective effect under oxidative stress conditions [2]: cryoprotective effect
- kidney preservation (kidney): improves kidney preservation
- graft outcomes (donor kidneys): improves renal graft outcomes
- tissue oxygenation during preservation (DCD porcine kidneys [3]; 200 nM AP39 in Hemopure®): higher tissue oxygenation than SCS
- urine output during preservation (DCD porcine kidneys [3]; 200 nM AP39 in Hemopure®): significantly higher
- apoptotic tissue injury (TUNEL score) (DCD porcine kidneys [3]; 200 nM AP39 in Hemopure®, after reperfusion, vs Hemopure® and Hemopure®+1 μM AP39 (FIGS. 6A-6F)): reduced apoptotic tissue injury
- urine output during preservation (DCD porcine kidneys [3]; 1 μM AP39 in Hemopure®): significantly higher
- urine output during reperfusion (DCD porcine kidneys [3]; preserved with 200 nM AP39 in Hemopure® at 21° C., 4 h reperfusion at 37° C., vs Hemopure® kidneys (FIG. 3B)): significantly higher

SMILES: S [H2S, Hydrogen sulfide]
- effect of exposure to extreme levels [4]: sudden collapse and unconsciousness

SMILES: O.O.O.O.O.O=S([O-])([O-])=S.[Na+].[Na+] [STS, sodium thiosulfate (STS) pentahydrate]
- tissue oxygenation during preservation (DCD porcine kidneys [3]; 150 μM STS in Hemopure®): higher tissue oxygenation than SCS
- urine output during preservation (DCD porcine kidneys [3]; 150 μM STS in Hemopure®): significantly higher

— US11850313B2, “Method and compositions for protecting tissue” (The London Health Sciences Centre Research Inc., priority 2019, dated 2023)
